Results on 23 compounds are retold here after ChEMBL document CHEMBL5576057, “Discovery of DS44470011: An oral hypoxia-inducible factor prolyl hydroxylase inhibitor for the treatment of renal anemia” (Bioorg Med Chem Lett, 2024).

In one series the test system is Hep 3B2. In words: […] activity against human Hep3B cells assessed as increase of erythropoietin release by measuring effective concentration. It counts as functional, cell-based.
Series [1] relates to Cynomolgus monkey. The experiment in a line: […] activity against Cynomolgous monkey assessed as increase of erythropoietin level in plasma at po administration measured after 12 hrs. It counts as functional, organism-based. The following applies: Macaca fascicularis.
In series [2] the test system is Cynomolgus monkey. The experiment in a line: animal or person. To be noted: Macaca fascicularis, in Primates, po, 24 h.
For another series, the target named is Egl nine homolog 1 (Homo sapiens, UniProt Q9GZT9).
A short description of series [3]: Volume of distribution at steady state in Cynomolgous monkey at 1 mg/kg,iv. To be noted: cynomolgus monkey, in vivo, read-out: Vdss. It counts as ADME, organism-based, Macaca fascicularis.
The nature of series [4]: AUC in Cynomolgous monkey at 3 mg/kg,po. It counts as ADME, organism-based, Macaca fascicularis. To be noted: cynomolgus monkey, in vivo.
The nature of series [5]: Cmax in Cynomolgous monkey at 3 mg/kg,po. It counts as ADME, organism-based, Macaca fascicularis. The following applies: cynomolgus monkey, in vivo.
The nature of series [6]: Metabolic stability in Cynomolgous monkey assessed as compound remaining. It counts as ADME, Macaca fascicularis. To be noted: cynomolgus monkey.
Series [7] in a line: Protein binding in Cynomolgous monkey assessed as assessed as unbound fraction. It counts as ADME, Macaca fascicularis. To be noted: cynomolgus monkey.
Series [8] is described as follows: Half life in Cynomolgous monkey at 1 mg/kg,iv. It counts as ADME, organism-based, Macaca fascicularis. The following applies: cynomolgus monkey, in vivo.
Series [9] is described as follows: Lipophilicity, logD of the compound. It counts as physicochemical. To be noted: octanol/water.

In general, EC50 refers to the concentration that produces a half-maximal response. Broadly, the IC50 is the concentration at which inhibition is half-maximal. For orientation: AUC means concentration integrated over time. A word on the Cmax: it is the maximum level reached in the sampled fluid or tissue. The term half-life denotes how long it takes for the measured level to halve. As a reminder, the logD is lipophilicity at a set pH, counting ionised and neutral species.

Activity calls are given as the source filed them. The calls are words filed in the database; no cut-off is given here.

Chain of Egl nine homolog 1 (Q9GZT9 whole entry): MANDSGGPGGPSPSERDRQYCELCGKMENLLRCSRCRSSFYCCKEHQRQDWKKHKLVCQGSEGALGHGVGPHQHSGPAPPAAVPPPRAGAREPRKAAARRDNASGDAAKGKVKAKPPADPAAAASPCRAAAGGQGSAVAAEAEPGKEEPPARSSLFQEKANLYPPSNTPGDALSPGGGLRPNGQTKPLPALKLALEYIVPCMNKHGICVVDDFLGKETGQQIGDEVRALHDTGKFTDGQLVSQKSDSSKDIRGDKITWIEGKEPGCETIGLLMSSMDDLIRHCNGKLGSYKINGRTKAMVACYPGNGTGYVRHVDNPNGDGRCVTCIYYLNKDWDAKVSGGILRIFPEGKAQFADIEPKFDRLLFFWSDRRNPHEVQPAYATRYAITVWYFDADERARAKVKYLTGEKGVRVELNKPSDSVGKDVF

As to `O=C(O)CNC(=O)c1nc(Cl)c2ccccc2c1O`, the EC50 in the series with Hep 3B2 worked out at 64 µM. The outcome with Cynomolgus monkey [1] was Active. The same compound registered an ED10 in the series with Cynomolgus monkey [2] of 13 mg/kg.

`Cc1nc(Cc2ccc(-c3ccccc3)cc2)nc(C(=O)NCC(=O)O)c1C(=O)O` displayed an IC50 against Egl nine homolog 1 greater than 100 µM.

Turning to `CCc1nc(Cc2ccc(-c3ccccc3)cc2)nc(C(=O)NCC(=O)O)c1O`, the EC50 with Hep 3B2 turned out to be 16 µM. This compound gave an IC50 against Egl nine homolog 1 of 7.3 µM.

Take `Cc1nc(CCc2ccc(F)cc2)c(O)c(C(=O)NCC(=O)O)n1`: the EC50 in the series on Hep 3B2 is 36 µM. On Egl nine homolog 1, the IC50 came to 8.1 µM.

As to `Cc1nc(Cc2ccc(-c3ccccc3)cc2)nc(C(=O)N[C@H](C)C(=O)O)c1O`, the IC50 against Egl nine homolog 1 is greater than 100 µM.

For the compound `Cc1nc(Cc2ccccc2-c2ccccc2)nc(C(=O)NCC(=O)O)c1O`, at Egl nine homolog 1, half-maximal inhibition (IC50) required 17 µM.

In the case of `Cc1nc(C)c(O)c(C(=O)NCC(=O)O)n1`, inhibition against Egl nine homolog 1 was half-maximal at 11 µM (IC50).

As for `Cc1nc(Cc2ccc(-c3ccccc3)cc2)nc(C(=O)NCC(=O)O)c1S`, in the series on Hep 3B2, the EC50 came out at 67 µM. At Egl nine homolog 1, this compound had an IC50 of 13 µM.

On to `Cc1nc(Cc2ccc(-c3ccccc3)cc2)nc(C(=O)NCC(=O)O)c1O`, for which, in the series on Hep 3B2, the EC50 stood at 8.4 µM. The Vd in series [3] was 0.06 L/kg. Moreover, the outcome in the series on Cynomolgus monkey [1] was Active. Moreover, the AUC in series [4] turned out to be 380 µg·h/mL. In addition, in series [5], the concentration peaked (Cmax) at 28000 ng/mL. Besides, in series [6], the Stability is listed as 90%. In addition, the IC50 against Egl nine homolog 1 was 1.5 µM. In addition, the Fu in series [7] is recorded as 0.6%. The compound also showed an ED10 with Cynomolgus monkey [2] of 2.2 mg/kg. This compound also showed a half-life in [8] of 13 h. In [9], this compound returned a pH-dependent lipophilicity (logD) of 0.8.

`Cc1nc(Cc2ccc(C(F)(F)F)cc2)nc(C(=O)NCC(=O)O)c1O`: in the series with Hep 3B2, the EC50 turned out to be 29 µM. At Egl nine homolog 1, this compound had an IC50 of 11 µM.

As for `Cc1nc(C(C)c2ccc(-c3ccccc3)cc2)nc(C(=O)NCC(=O)O)c1O` (racemic), the EC50 with Hep 3B2 came out at 16 µM. At Egl nine homolog 1, this compound returned a half-maximal inhibitory concentration (IC50) of 18 µM.

Take `Cc1nc(C(F)(F)c2ccc(-c3ccccc3)cc2)nc(C(=O)NCC(=O)O)c1O`: half-maximal inhibition against Egl nine homolog 1 (IC50) was put at 55 µM.

Compound `Cc1nc(Cc2ccc(Cl)cc2)nc(C(=O)NCC(=O)O)c1O` showed an IC50 against Egl nine homolog 1 of 17 µM.

`O=C(O)CNC(=O)c1nc(Cc2ccc(-c3ccccc3)cc2)nc(C(F)F)c1O`: the EC50 with Hep 3B2 was found to be 105 µM. Besides, the IC50 at Egl nine homolog 1 was found to be 4.1 µM.

As for `Cc1nc(Cc2ccc(-c3ccccc3)cc2)nc(C(=O)NCC(=O)O)c1N`, at Egl nine homolog 1, the IC50 is greater than 100 µM.

`O=C(O)CNC(=O)c1nc(Cc2ccc(-c3ccccc3)cc2)ncc1O` had an IC50 against Egl nine homolog 1 greater than 100 µM.

Take `Cc1nc(Cc2ccc(-c3ccccc3)cc2)nc(C(=O)N[C@@H](C)C(=O)O)c1O`: the half-maximal effective concentration (EC50) in the series with Hep 3B2 was found to be 14 µM. Also, the IC50 against Egl nine homolog 1 was determined as 10 µM.

`Cc1nc(Cc2ccc(F)cc2)c(O)c(C(=O)NCC(=O)O)n1`: the EC50 with Hep 3B2 is 51 µM. This compound returned an IC50 against Egl nine homolog 1 of 11 µM.

Consider `Cc1nc(Cc2ccc(C(C)(C)C)cc2)nc(C(=O)NCC(=O)O)c1O`, for which the concentration giving a half-maximal response (EC50) with Hep 3B2 came out at 25 µM. At Egl nine homolog 1, this compound returned an IC50 of 3.9 µM.

For `Cc1nc(Cc2cccc(-c3ccccc3)c2)nc(C(=O)NCC(=O)O)c1O`, the EC50 with Hep 3B2 was 61 µM. At Egl nine homolog 1, this compound registered an IC50 of 20 µM.

As to `Cc1nc(Cc2ccc(-c3ccccc3)cc2)c(O)c(C(=O)NCC(=O)O)n1`, in the series on Hep 3B2, the EC50 amounted to 27 µM. In addition, half-maximal inhibition on Egl nine homolog 1 (IC50) required 10 µM.

As for `Cc1nc(Cc2ccc(-c3ccccc3)cc2)nc(C(=O)NCC(=O)O)c1C`, the IC50 at Egl nine homolog 1 is greater than 100 µM.

Turning to `Cc1nc(C(=O)NCC(=O)O)c(O)c(-c2ccc(F)cc2)n1`, the 50% effective concentration (EC50) in the series on Hep 3B2 came out at 108 µM. For the same compound, half-maximal inhibition against Egl nine homolog 1 (IC50) required 39 µM.
